Test results from US8008260B2, “Methods of protecting against apoptosis using lipopeptides” (Cleveland Clinic Foundation, priority 2005, dated 2011).
Values belong to the compound of their own block, whether it stands above or below them. Peptide text beside a SMILES is read from it. * marks the point of attachment. Propyl(2R-PamO,3-PamO) = CCCCCCCCCCCCCCCC(=O)OC[C@H](C*)OC(=O)CCCCCCCCCCCCCCC; X1 = CCCCCCCCCCCCCCCC(=O)OCC(C*)OC(=O)CCCCCCCCCCCCCCC

Assays:
[1] = molecular target: T1, TLR2/TLR6 heterodimer (Homo sapiens, UniProt O60603+Q9Y2C9); assay: NF-κB-dependent reporter activity in 293 cells expressing the TLR2/TLR6 heterodimer; format: cell-based; parameters: NF-κB activation: scale not given here; settings: for NF-κB activation: in vitro activity, 293 cells expressing TLR2/TLR6; for activation of the NF-κB reporter (in words, compared with CBLB601): 293 cells expressing TLR2/TLR6, various doses
T1 construct: expressed in transfected cells; host or cells: 293 cells
T1 sequence (O60603 21-784): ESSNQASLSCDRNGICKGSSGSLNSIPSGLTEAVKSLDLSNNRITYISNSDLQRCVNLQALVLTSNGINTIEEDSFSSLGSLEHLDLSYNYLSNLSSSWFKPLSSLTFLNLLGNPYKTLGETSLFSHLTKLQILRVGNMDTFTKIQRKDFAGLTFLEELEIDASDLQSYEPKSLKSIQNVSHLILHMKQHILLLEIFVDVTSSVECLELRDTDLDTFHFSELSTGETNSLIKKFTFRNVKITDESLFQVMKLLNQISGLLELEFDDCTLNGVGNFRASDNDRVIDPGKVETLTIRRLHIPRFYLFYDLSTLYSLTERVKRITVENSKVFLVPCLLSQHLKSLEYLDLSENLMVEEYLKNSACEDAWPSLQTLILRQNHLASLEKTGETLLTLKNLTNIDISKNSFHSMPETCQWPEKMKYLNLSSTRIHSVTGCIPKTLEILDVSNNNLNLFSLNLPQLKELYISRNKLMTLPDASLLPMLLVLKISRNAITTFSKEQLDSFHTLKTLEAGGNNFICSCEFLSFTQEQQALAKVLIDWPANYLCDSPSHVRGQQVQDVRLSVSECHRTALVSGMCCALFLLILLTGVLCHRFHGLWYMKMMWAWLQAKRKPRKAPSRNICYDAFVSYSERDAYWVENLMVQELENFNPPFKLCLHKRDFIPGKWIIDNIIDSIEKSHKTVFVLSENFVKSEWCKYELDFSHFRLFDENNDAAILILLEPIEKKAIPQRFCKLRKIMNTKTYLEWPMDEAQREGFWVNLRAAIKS
T1 sequence (Q9Y2C9 32-796): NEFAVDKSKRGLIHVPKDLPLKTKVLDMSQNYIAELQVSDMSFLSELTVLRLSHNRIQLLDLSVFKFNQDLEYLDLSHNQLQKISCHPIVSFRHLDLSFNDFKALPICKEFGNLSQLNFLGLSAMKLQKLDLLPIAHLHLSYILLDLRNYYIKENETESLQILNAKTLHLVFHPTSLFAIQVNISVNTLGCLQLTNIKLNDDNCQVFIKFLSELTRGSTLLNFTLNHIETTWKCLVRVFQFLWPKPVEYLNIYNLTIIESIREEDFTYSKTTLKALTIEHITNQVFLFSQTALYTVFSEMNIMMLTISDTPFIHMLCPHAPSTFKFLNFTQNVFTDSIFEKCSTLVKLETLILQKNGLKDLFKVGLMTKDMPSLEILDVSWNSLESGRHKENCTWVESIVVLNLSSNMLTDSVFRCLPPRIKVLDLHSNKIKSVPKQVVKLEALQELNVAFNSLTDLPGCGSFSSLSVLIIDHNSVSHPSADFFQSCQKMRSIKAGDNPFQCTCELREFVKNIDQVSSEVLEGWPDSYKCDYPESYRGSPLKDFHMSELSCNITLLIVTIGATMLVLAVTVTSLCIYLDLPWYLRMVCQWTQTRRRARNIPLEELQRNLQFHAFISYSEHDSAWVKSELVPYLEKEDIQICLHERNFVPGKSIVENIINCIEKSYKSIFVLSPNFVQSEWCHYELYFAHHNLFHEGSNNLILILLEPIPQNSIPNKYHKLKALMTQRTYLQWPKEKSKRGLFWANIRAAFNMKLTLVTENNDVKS
Description: NF-κB-dependent reporter activity was measured in 293 cells that expressed the TLR2/YLR6 heterodimer. […] None of the non-palmitoylated corresponding peptides activated the NF-κB reporter (FIG. 18B). The peptide component of CBLB617 has a (−4) charge, which should prevent it from interacting with negatively charged cell surface markers. […] Table 5 summarizes the in vitro activity and solubility of all the compounds.

[2] = Solubility of the lipopeptides
[3] = tested on: ICR mice; assay: Radioprotection against total body gamma irradiation (TBI), 30-day survival; format: in vivo; settings: for toxicity in combination with radiation: i.m. 24 hours before 10 Gy TBI; for rank of radioprotective potency: i.m. 24 hrs before 10 Gy TBI
From the text: CBLB601, a R-Pam2-lipopeptide with the peptide moiety consisting of C-SKKKK (SEQ ID NO: 8), was selected for more detailed characterization as a radioprotector based upon its ability to activate NF-κB and preliminary in vivo data on radioprotection in NIH-SWISS mice (see Example 2). The objectives of this study were to determine the optimal dose, route of administration, and time of administration of CBLB601 to serve as a protector. ICR female mice of 10-15 weeks of age were used, with 10-15 animals per group or condition.
The optimal intraperitoneal administration schedule of CBLB601 was determined by injecting the compound at different times prior to irradiation. […] Therefore, all of the optimization experiments were performed with 10 Gy of total body irradiation (TBI). A dose of 3 μg of BCLB601/mouse (1/10 NOAEL) was chosen as the starting dose. Thus, 3 μg of CBLB601 was injected i.p. into ICR mice at 0.5 h, 1 h, 6 h, and 24 h or 1 h, 24 h, 48 h, 72 h, 96 h prior to 10 Gy of TBI (as described in Example 1). […] Injection of CBLB601 24 hrs before irradiation clearly yielded the best radioprotection (90-100% 30-day survival). When the compound was administered 48 hrs before irradiation, the radioprotection was ˜30%. Administration of CBLB601 at 1 hr prior to irradiation produced inconsistent results ranging from 80% protection in one experiment (FIG. 5B) to almost no protection (20%) in another experiment (FIG. 5A).
To determine the optimal radioprotective dose of CBLB601, the timing of injection and level of irradiation were kept constant, while the dose of CBLB601 was varied. ICR mice were injected i.p. with 1, 3, 10, 20, or 30 μg of CBLB601/mouse or 0.1, 0.3, 1, 3, 10, or […] 24 hrs prior to irradiation (10 Gy of TBI), and their survival was monitored for 30 days. The best protective dose was 3 μg/mouse, which supported a survival of 100% (FIGS. 6 A and B). […] Thus, the optimal protective dose of CBLB601 was determined to be 3 μg/mouse.
To determine the level of radiation that was protected by CBLB601, radioprotectant-treated and control mice were exposed to increasing levels of TBI. Groups of ICR mice were injected i.p. with either 3 μg CBLB601/mouse or PBS, and then 24 h later they received 10, 11, 12, 13, 14, and 15 Gy doses of TBI. Survival was recorded over 30 days. […] All of the mice irradiated with 10-11 Gy of TBI died between days 12-14 post irradiation, which was typical for death due to hematopoietic failure. All of the mice that received 14-15 Gy of TBI died between days 7-9 post irradiation, which was typical for mortality due to radiation-induced intestinal damage. Mice that were irradiated with 12-13 Gy of TBI died at intermediate times, which was typical for a mixed etiology of radiation-induced mortality. […] To reach a statistically significant 10% difference between control and CBLB601-treated mice, experimental groups of at least 50 mice must be used. Although CBLB601 rescued 100% of mice from 10 Gy of TBI, its protection at 11 Gy of TBI was only 20%. […] This may be indicative of a combined toxicity of the drug and the irradiation.
CBLB601 was administered intramuscularly to determine the optimal route of administration of this compound (especially since this would be the preferred route of administration for humans). […] In another experiment, increasing doses of CBLB601 administered i.m. were tested against 10, 11, and 12 Gy doses of […] (FIG. 9). […] A summary of the dose-dependency of the radioprotection of […] administered i.p. or i.m. 24 h prior to 10 Gy of TBI is shown in FIG. 10.
The optimal schedule of intramuscular administration of CBLB601 was determined by varying the time between drug delivery and irradiation. ICR mice were injected i.m. with 3 μg of CBLB601/mouse 24 h, 6 h, 3 h, and 1 h prior to TBI and +1 h, +3 h after TBI (FIG. 12A), as well as 48 h, 36 h, 24 h, 12 h, and 6 h prior to TBI (FIG. 12B). […]

SMILES: CCCCCCCCCCCCCCCC(=O)OCC(CSC[C@H](N)C(=O)NCC(=O)N[C@@H](CO)C(=O)N[C@@H](Cc1c[nH]cn1)C(=O)N[C@@H](Cc1c[nH]cn1)C(=O)N[C@@H](CCSC)C(=O)O)OC(=O)CCCCCCCCCCCCCCC (stereo partly shown) [CBLB604] (H-C(X1)GSHHM-OH)
NF-κB activation [1]: 0
Solubility [2]: Poor

SMILES: CCCCCCCCCCCCCCCC(=O)OCC(CSC[C@H](N)C(=O)NCC(=O)N[C@@H](CCC(N)=O)C(=O)N[C@@H](Cc1c[nH]cn1)C(=O)N[C@@H](Cc1c[nH]cn1)C(=O)N[C@@H](CCSC)C(=O)O)OC(=O)CCCCCCCCCCCCCCC (stereo partly shown) [CBLB603] (H-C(X1)GQHHM-OH)
NF-κB activation [1]: 0
Solubility [2]: Poor

SMILES: CCCCCCCCCCCCCCCC(=O)OC[C@H](CSC[C@H](N)C(=O)NCC(=O)N[C@@H](CCC(=O)O)C(=O)N[C@@H](CCC(=O)O)C(=O)N[C@@H](CC(=O)O)C(=O)N[C@@H](CC(=O)O)C(=O)O)OC(=O)CCCCCCCCCCCCCCC [CBLB617] (H-C(Propyl(2R-PamO,3-PamO))GEEDD-OH)
activation of the NF-κB reporter (in words, compared with CBLB601) [1]: comparable to that of CBLB601
NF-κB activation [1]: 100
survival ([3]; after 13 days, doses of 10-87.5 μg/mouse respectively, 10 Gy TBI): 7-90%
visible toxicity ([3]; after 13 days, highest dose 87.5 μg/mouse, 10 Gy TBI): no visible toxicity
Solubility [2]: Soluble

SMILES: CCCCCCCCCCCCCCCC(=O)OCC(CSC[C@H](N)C(=O)N[C@@H](Cc1ccccc1)C(=O)N[C@@H](CCC(=O)O)C(=O)N1CCC[C@H]1C(=O)N1CCC[C@H]1C(=O)N1CCC[C@H]1C(=O)N[C@@H](C)C(=O)N[C@H](C(=O)N[C@H](C(=O)N[C@H](C(=O)N[C@@H](CCCCN)C(=O)N[C@@H](CO)C(=O)N[C@@H](CCCCN)C(=O)O)[C@@H](C)O)[C@@H](C)O)[C@@H](C)O)OC(=O)CCCCCCCCCCCCCCC (stereo partly shown) [CBLB608] (H-C(X1)FEPPPATTTKSK-OH)
NF-κB activation [1]: 2
Solubility [2]: Excellent

SMILES: CCCCCCCCCCCCCCCC(=O)OCC(CSC[C@H](N)C(=O)NCC(=O)N[C@@H](CC(=O)O)C(=O)N1CCC[C@H]1C(=O)N[C@@H](CCCCN)C(=O)N[C@@H](Cc1c[nH]cn1)C(=O)N1CCC[C@H]1C(=O)N[C@@H](CCCCN)C(=O)N[C@@H](CO)C(=O)N[C@@H](Cc1ccccc1)C(=O)N[C@H](C(=O)NCC(=O)N[C@@H](Cc1c[nH]c2ccccc12)C(=O)N[C@H](C(=O)N[C@@H](C)C(=O)O)C(C)C)[C@@H](C)O)OC(=O)CCCCCCCCCCCCCCC (stereo partly shown) [CBLB607] (H-C(X1)GDPKHPKSFTGWVA-OH)
NF-κB activation [1]: 2
Solubility [2]: Poor

NF-κB activation [1]: 0
SMILES: CCCCCCCCCCCCCCCC(=O)OCC(CSC[C@H](N)C(=O)NCC(=O)N[C@@H](CCC(=O)O)C(=O)N[C@H](C(=O)N[C@@H](CC(=O)O)C(=O)N[C@@H](CCCCN)C(=O)N[C@@H](CCC(=O)O)C(=O)NCC(=O)N[C@@H](CCCCN)C(=O)N[C@H](C(=O)N[C@H](C(=O)N[C@@H](CCCNC(=N)N)C(=O)N[C@H](C(=O)N[C@@H](Cc1ccccc1)C(=O)N[C@@H](CC(=O)O)C(=O)N[C@@H](CC(N)=O)C(=O)N[C@@H](CO)C(=O)N[C@@H](Cc1ccccc1)C(=O)O)[C@@H](C)CC)[C@@H](C)CC)[C@@H](C)CC)[C@@H](C)O)OC(=O)CCCCCCCCCCCCCCC (stereo partly shown) [CBLB611] (H-C(X1)GETDKEGKIIRIFDNSF-OH)

SMILES: CCCCCCCCCCCCCCCC(=O)OC[C@H](CSC[C@H](N)C(=O)NCC(=O)N[C@@H](CCC(=O)O)C(=O)N[C@H](C(=O)N[C@@H](CC(=O)O)C(=O)N[C@@H](CCCCN)C(=O)O)[C@@H](C)O)OC(=O)CCCCCCCCCCCCCCC [CBLB613] (H-C(Propyl(2R-PamO,3-PamO))GETDK-OH)
activation of the NF-κB reporter (in words, compared with CBLB601) [1]: comparable to that of CBLN601
NF-κB activation [1]: 200
protection (30-day survival) ([3]; doses of 10, 30 and 82.5 μg/mouse i.m. 24 hours before 10 Gy TBI): 100%
toxicity in combination with radiation [3]: non-toxic in combination with the radiation
radioprotector quality compared with CBLB601 ([3]; mouse, in vivo): significantly better radioprotectors than CBLB601
therapeutic index ([3]; summary of Example 5): ~20
Solubility [2]: Soluble

SMILES: CCCCCCCCCCCCCCCC(=O)OCC(CSC[C@H](N)C(=O)N[C@@H](CO)C(=O)N[C@@H](CCC(N)=O)C(=O)N[C@@H](CCSC)C(=O)N[C@@H](Cc1c[nH]cn1)C(=O)N[C@@H](Cc1c[nH]cn1)C(=O)O)OC(=O)CCCCCCCCCCCCCCC (stereo partly shown) [CBLB605] (H-C(X1)SQMHH-OH)
NF-κB activation [1]: 2
Solubility [2]: Poor

SMILES: CCCCCCCCCCCCCCCC(=O)OC[C@H](CSC[C@H](N)C(=O)NCC(=O)N[C@@H](CC(=O)O)C(=O)N1CCC[C@H]1C(=O)N[C@@H](CCCCN)C(=O)N[C@@H](Cc1c[nH]cn1)C(=O)N1CCC[C@H]1C(=O)N[C@@H](CCCCN)C(=O)N[C@@H](CO)C(=O)N[C@@H](Cc1ccccc1)C(=O)O)OC(=O)CCCCCCCCCCCCCCC [CBLB606] (H-C(Propyl(2R-PamO,3-PamO))GDPKHPKSF-OH; C-terminus assumed)
NF-κB activation [1]: 100
Solubility [2]: Poor

SMILES: CCCCCCCCCCCCCCCC(=O)OC[C@H](CSC[C@H](N)C(=O)N[C@@H](CCC(N)=O)C(=O)NCC(=O)N[C@@H](CCC(=O)O)C(=O)N[C@@H](CCC(=O)O)C(=O)N[C@@H](CO)C(=O)N[C@@H](CC(N)=O)C(=O)N[C@@H](CC(=O)O)C(=O)N[C@@H](CCCCN)C(=O)O)OC(=O)CCCCCCCCCCCCCCC [CBLB614] (H-C(Propyl(2R-PamO,3-PamO))QGEESNDK-OH)
activation of the NF-κB reporter (in words, compared with CBLB601) [1]: better activators than CBLB601
NF-κB activation [1]: 200
toxicity in combination with radiation [3]: no toxicity in combination with radiation
rank of radioprotective potency [3]: CBLB612>CBLB614>CBLB615
Solubility [2]: Soluble

SMILES: CCCCCCCCCCCCCCCC(=O)OC[C@H](CSC[C@H](N)C(=O)NCC(=O)N[C@@H](CCC(=O)O)C(=O)N[C@@H](CCC(=O)O)C(=O)N[C@@H](CO)C(=O)N[C@@H](CC(N)=O)C(=O)O)OC(=O)CCCCCCCCCCCCCCC [CBLB615] (H-C(Propyl(2R-PamO,3-PamO))GEESN-OH)
activation of the NF-κB reporter (in words, compared with CBLB601) [1]: better activators than CBLB601
NF-κB activation [1]: 200
toxicity in combination with radiation [3]: no toxicity in combination with radiation
rank of radioprotective potency [3]: CBLB612>CBLB614>CBLB615
Solubility [2]: Soluble

SMILES: CCCCCCCCCCCCCCCC(=O)OCC(CSC[C@H](N)C(=O)NCC(=O)N[C@@H](CCC(N)=O)C(=O)N[C@@H](Cc1c[nH]cn1)C(=O)N[C@@H](Cc1c[nH]cn1)C(=O)N[C@@H](Cc1c[nH]cn1)C(=O)O)OC(=O)CCCCCCCCCCCCCCC (stereo partly shown) [CBLB602] (H-C(X1)GQHHH-OH)
NF-κB activation [1]: 0
Solubility [2]: Poor
